Reference: patent US5247079A, “7-cyclopropyl-imidazodiazepines” (Roussel Uclaf, priority 1990, dated 1993)

Tests used:
benzodiazepine receptors [1] = experiment: in vivo binding to benzodiazepine receptors, Goeders et al (Test 2); details: IP
Method: Measuring of in vivo binding to benzodiazepine receptors was carried out according to the method described by Goeders et al, Life Sciences (1985), Vol. 37, p. 345.

benzodiazepine receptors [2] = experiment: Affinity for benzodiazepine receptors, displacement of ^3 H-labelled flunitrazepam in membranes from the rear portion of the brain in rats (Test 1); details: 0.6×10^-9 mol of ^3 H-labelled flunitrazepam; membranes from the rear portion of rat brain; read-out: Test 1: concentration which inhibited 50% of the specific binding of ^3 H-labelled flunitrazepam (IC50)
Method: The affinity of the active ingredients for the benzodiazepine receptors was measured using a radioactively labelled (^3 H) compound flunitrazepam,and a modified version of the method of Squires and Braestrup (Nature, 1977, Vol. 266, p. 732). The values given in Table 2 below are the concentration (mol×10^-9) of the compound under test which inhibited 50% of the specific binding of 0.6×10^-9 mol of ^3 H-labelled flunitrazepam in preparations of membranes from the rear portion of the brain in rats (IC50 values).

## CN1Cc2c(C(=O)C3CC3)ncn2-c2ccnc(C3CC3)c2C1=O [Example 2, 7-cyclopropyl-5,6-dihydro-5-methyl-6-oxo-4H-imidazo-[1,5-a]-pyrido [3,4-f]diazepin-3-yl cyclopropyl methanone]
Benzodiazepine receptors [1]
  Test 2 ED50: 0.08 mg/kg
Benzodiazepine receptors [2]
  IC50: 26 nM

## CN1Cc2c(C(=O)C3CC3)ncn2-c2cccc(C3CC3)c2C1=O [Example 1, 7-cyclopropyl-5,6-dihydro-5-methyl-6-oxo-4H-imidazo-[1,5-a][1,4]-benzodiazepin-3-yl cyclopropyl methanone]
Benzodiazepine receptors [1]
  Test 2 ED50: 0.15 mg/kg
Benzodiazepine receptors [2]
  IC50: 36 nM

## CN1Cc2c(C(=O)C3CC3)ncn2-c2ccncc2C1=O [Example 3, 5,6-dihydro-5-methyl-6-oxo-4H-imidazo [1,5-a]-pyrido-[3,4-f][1,4]-diazepin-3-yl cyclopropylmethanone]
Benzodiazepine receptors [1]
  Test 2 ED50: 0.13 mg/kg
Benzodiazepine receptors [2]
  IC50: 105 nM
